Publication PMC6540907, “The nuclear export inhibitor aminoratjadone is a potent effector in extracellular-targeted drug conjugates” (Chemical Science, 2019)
Where two headings read alike, the source gives them in different places. No end group written: not given here.

Columns and labels:
[1] = system: KB-3.1; design: method as in Köster et al.10; settings: KB-3.1 human cervix carcinoma; ref Köster et al.10; read-out: Antiproliferative activity IC50; cited from earlier work
[2] = system: KB-V1; design: method as in Köster et al.10; settings: KB-V1 multi-drug-resistant human cervix carcinoma; ref Köster et al.10; read-out: Antiproliferative activity IC50; cited from earlier work
[3] = system: K-562; design: method as in Köster et al.10; settings: K-562 human chronic myelogenous leukemia; ref Köster et al.10; read-out: Antiproliferative activity IC50; cited from earlier work
[4] = system: PC-3; design: method as in Köster et al.10; settings: PC-3 human prostate carcinoma; ref Köster et al.10; read-out: Antiproliferative activity IC50; cited from earlier work
[5] = system: L-929; design: method as in Köster et al.10; settings: L-929 murine fibroblast; ref Köster et al.10; read-out: Antiproliferative activity IC50; cited from earlier work
[6] = system: panel of cancer cell lines; assay: Antiproliferative activity of drug-free LHRH carriers in a panel of cancer cell lines; assay type: cell-based, human; settings: KB-3.1, A-549, SK-OV-3, MCF-7
Excerpt: Luteinizing hormone releasing hormone (LHRH)-based carriers were selected for this purpose, because it has been shown that several cancer cell types overexpress receptors for LHRH, a peptide-hormone involved in regulation of the sex glands of males and females.[25],[26],[29],[82]–[84] We synthesized three novel derivatives of LHRH that bear azido-ornithine as […] amino acid of the decapeptide core structure instead of the glycine residue found in the natural peptide (Fig. 8). As the importance of the newly introduced stereocenter was unclear, both diastereoisomers L-Orn-N3-LHRH and D-Orn-N3-LHRH were prepared. An additional analog, D-Orn-N3-Gose, was based on the synthetic LHRH analogue goserelin, that was reported to have higher affinity for the LHRH-receptor[85] due to a hydrazine carboxamide in the C-terminal position. […] Next, their antiproliferative activities were evaluated in a panel of cancer cell lines, in order to assess a contribution of the drug-free targeting moiety to bioactivity. […] The conjugates were evaluated for their antiproliferative activity against the LHRH-receptor-positive lung cancer cell line A-549 (Table 3). […]
serial dilutions of the test compound were given to 120 µL of suspended cells (50.000/mL) in wells of 96-well plates. After 5 days of incubation growth inhibition (IC50) was determined using an MTT assay.9 […]

[7] = system: L-929; assay: Cell proliferation assay (MTT, 5 days); assay type: cell-based, murine; settings: Mus musculus, L929, L-929 murine fibroblast; read-out: Antiproliferative activity IC50
Procedure: (§1) Biological evaluation of the compounds […]
(§2) serial dilutions of the test compound were given to 120 µL of suspended cells (50.000/mL) in wells of 96-well plates. After 5 days of incubation growth inhibition (IC50) was determined using an MTT assay.9
(§3) Table S1:Medium conditions for different cell types.
(§4) Cell type Medium Additives
(§5) L-929 (DSMZ ACC 2) DME medium (high glucose) (Gibco) 10% fetal calf serum (Gibco) SKOV-3 DSMZ ATCC HTB Mc Coys-Medium (Gibco) 10% fetal calf serum (Gibco) […]
A549 (DSMZ ACC 107) DME medium (high glucose) (Gibco) 10% fetal calf serum (Gibco) KB 3.1 (DSMZ ACC 158) DME medium (high glucose) (Gibco) 10% fetal calf serum (Gibco) Ratjadone Compound Antiproliferative activity IC50 [nM]
KB-3.1: human cervix carcinoma, KB-V1: multi-drug-resistant human cervix carcinoma, K-562: human chronic myelogenous leukemia cell, PC-3: human prostate carcinoma, L-929: murine fibroblast
Figure S8: Structures of Ratjadone A-D and their antiproliferative activity (IC50 values in nM). Data published by Köster et al.10

[8] = system: MCF-7; assay: cells; assay type: cell-based, human; settings: Homo sapiens, MCF7, MCF-7 human breast carcinoma; read-out: Antiproliferative activity IC50
Procedure: as §1, §2, §3, §4, §5
(§6) A549 (DSMZ ACC 107) DME medium (high glucose) (Gibco) 10% fetal calf serum (Gibco)

[9] = system: SK-OV-3; assay: cells; assay type: cell-based, human; settings: Homo sapiens, SK-OV-3, SK-OV-3 human ovarian carcinoma; read-out: Antiproliferative activity IC50
Procedure: as §1, §2, §3, §4, §5, §6

[10] = system: A-549; assay: cells; assay type: cell-based, human; settings: Homo sapiens, A549, A-549 human lung carcinoma; read-out: Antiproliferative activity IC50
Procedure: as §1, §2, §3, §4, §5, §6

[11] = system: KB-3.1; assay: cells; assay type: cell-based, human; settings: KB 3-1; KB-3.1 human cervix carcinoma; read-out: Antiproliferative activity IC50
Procedure: as §1, §2, §3, §4, §5, §6

[12] = biological target: CRM1 (Homo sapiens, UniProt O14980); assay: Nuclear export inhibition, fluorescent translocation biosensor in recombinant HeLa cells; assay type: cell-based; design: This cellular assay uses HeLa cells that express a recombinant fusion protein; endogenous in cells; host or cells: HeLa cells stably expressing the NLS-GST-GFP-RevNES translocation biosensor (HeLaRevBio); settings: HeLa cells expressing translocation biosensor, 1 h incubation; read-out: nuclear export inhibition IC50
Chain of CRM1 (O14980 whole entry, the tested form may be a part): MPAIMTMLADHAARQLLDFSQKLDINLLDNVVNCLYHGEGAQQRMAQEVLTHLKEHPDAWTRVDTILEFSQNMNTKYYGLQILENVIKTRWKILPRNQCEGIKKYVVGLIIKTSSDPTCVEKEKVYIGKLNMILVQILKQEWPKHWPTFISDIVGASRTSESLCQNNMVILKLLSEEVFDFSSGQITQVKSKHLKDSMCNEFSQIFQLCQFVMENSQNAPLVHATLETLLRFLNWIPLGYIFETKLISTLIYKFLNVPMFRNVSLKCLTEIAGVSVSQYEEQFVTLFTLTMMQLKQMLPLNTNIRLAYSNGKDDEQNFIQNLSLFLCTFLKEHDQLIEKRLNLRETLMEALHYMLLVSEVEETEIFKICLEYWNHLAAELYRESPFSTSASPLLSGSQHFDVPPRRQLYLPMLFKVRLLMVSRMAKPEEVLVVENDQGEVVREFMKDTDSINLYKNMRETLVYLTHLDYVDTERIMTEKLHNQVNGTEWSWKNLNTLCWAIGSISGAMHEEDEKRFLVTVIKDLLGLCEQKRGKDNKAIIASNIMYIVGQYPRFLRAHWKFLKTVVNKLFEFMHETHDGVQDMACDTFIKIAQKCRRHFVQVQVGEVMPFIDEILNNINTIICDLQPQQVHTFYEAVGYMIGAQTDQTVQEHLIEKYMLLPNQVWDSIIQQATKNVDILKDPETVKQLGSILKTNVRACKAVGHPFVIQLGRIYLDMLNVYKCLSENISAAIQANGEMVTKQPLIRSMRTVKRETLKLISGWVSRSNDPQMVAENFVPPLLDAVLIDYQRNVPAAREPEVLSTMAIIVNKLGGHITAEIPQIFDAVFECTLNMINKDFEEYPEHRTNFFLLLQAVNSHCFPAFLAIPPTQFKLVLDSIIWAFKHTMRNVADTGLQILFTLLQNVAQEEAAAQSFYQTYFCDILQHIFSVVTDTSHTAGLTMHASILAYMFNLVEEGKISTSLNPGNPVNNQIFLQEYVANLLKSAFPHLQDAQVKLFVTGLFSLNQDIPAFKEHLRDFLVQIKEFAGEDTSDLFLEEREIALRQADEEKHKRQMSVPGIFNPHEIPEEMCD

[13] = design: method as in ref 86 = [86]; Hartmann D. A. Curr. Protoc. Pharmacol. 2002 19 7.6.1 7.6.8; settings: cited from earlier work
[14] = Plasma stability assay (HPLC-MS/MS); assay type: in vitro ADME; settings: 37 °C, pH 7.4, two hours, 250 µM
Procedure: We exposed three selected conjugates, FA-7-Val-Cit-PABA-16R-aminoratjadone, FA-SS-16R-aminoratjadone and FA-3b-16R-aminoratjadone, to human plasma and quantified their relative amount at different time points by HPLC-MS/MS analysis (Fig. 9).
FA-7-Val-Cit-pABA-16R-Aminoratjadone (PK008a), FA-SS-16R-Aminoratjadone (PK026a) and FA-3b-L-Aminoratjadone (PK058a) were dissolved in DMSO were added to human plasma (pH 7.4, 37°C) to yield a final concentration of 10 µg/ml. In addition, procaine, propoxycaine and procainamide (dissolved in DMSO) were added to human plasma (pH 7.4, 37°C) to yield a final concentration of 250 µM. Procaine and propoxycaine served as positive controls as they are known to be unstable in mouse plasma. Procainamide served as negative control as it is known to be stable in mouse plasma. The samples were incubated for 0 min, 30 min, 60 min, 90 min and 120 min at 37°C. At each time point 10 µl of the respective sample was extracted with 50 µl acetonitrile containing an internal standard for 15 min on ice. […] All samples were analyzed via HPLC-MS using an Agilent 1290 Inifinity II HPLC system coupled to an AB Sciex QTrap 6500plus mass spectrometer. […]
MRM. All compo unds were detected in positive scan mode. Peak areas of each compound and of the internal standard were analyzed using MultiQuant 3.0 software (AB Sciex). Peaks were quantified using […]

Compound | IC50 [1] [nM] | IC50 [2] [nM] | IC50 [3] [nM] | IC50 [4] [nM] | IC50 [5] [nM] | also measured
C/C=C/[C@@H]1O[C@H]([C@@H](O)/C=C/C=C/C[C@@H](C)/C=C(C)\C=C\[C@H]2CC=CC(=O)O2)C[C@@H](O)[C@@H]1C [Compound 2, Ratjadone B] | 1 | 0.15 | 0.5 | 0.15 | 0.35 | 
C/C=C/[C@@H]1O[C@H]([C@@H](O)/C=C/C=C/C[C@@H](C)/C=C(\C=C\[C@H]2CC=CC(=O)O2)CC)C[C@@H](O)[C@@H]1C [Compound 3, Ratjadone C] | 0.35 | 0.08 | 0.15 | 0.08 | 0.2 | 
CC(C)C[C@H](NC(=O)[C@H](CCCN=[N+]=[N-])NC(=O)[C@H](Cc1ccc(O)cc1)NC(=O)[C@H](CO)NC(=O)[C@H](Cc1c[nH]c2ccccc12)NC(=O)[C@H](Cc1c[nH]cn1)NC(=O)[C@@H]1CCC(=O)N1)C(=O)N[C@@H](CCCNC(=N)N)C(=O)N1CCC[C@H]1C(=O)NCC(N)=O [L-Orn-N3-LHRH] |  |  |  |  |  | antiproliferative activity of the drug-free targeting moiety [6]: no antiproliferative activity
CC=CC1OC(C(O)C=CC=C(C)CC(C)C=C(C)C=CC2CC=CC(=O)O2)CC(O)C1C (single isomer, unassigned; (+)) [Compound 1, (+)-ratjadone A, reference compound] | 0.3 | 0.15 | 0.3 | 0.08 | 0.15 | IC50 [7]: 0.68 nM; IC50 [8]: 0.11 nM; IC50 [9]: 0.24 nM; IC50 [10]: 0.15 nM; IC50 [11]: 0.46 nM; IC50 [12]: 1.2 nM
C/C=C/[C@@H]1O[C@H](C/C=C/C=C/C[C@@H](C)/C=C(\C=C\[C@H]2CC=CC(=O)O2)CC)C[C@@H](O)[C@@H]1C [Compound 4, Ratjadone D] | 2 | 0.3 | 0.5 | 0.4 | 1 | 
LHRH: luteinizing hormone releasing hormone, peptide hormone (QHWSYGLRPG-NH2; not fully specified (residue 1); ends and bridges not checked; UniProt P01148 24-33, looked up) [reference compound] |  |  |  |  |  | antiproliferative activity of the drug-free targeting moiety [6]: no antiproliferative activity
CCCOc1cc(N)ccc1C(=O)OCCN(CC)CC [propoxycain] |  |  |  |  |  | stability in plasma (known) [13]: degrade rapidly in plasma; degraded in human plasma [14]: more than 90%
CCN(CC)CCOC(=O)c1ccc(N)cc1 [procain] |  |  |  |  |  | stability in plasma (known) [13]: degrade rapidly in plasma; degraded in human plasma [14]: more than 90%
